# Earlier results, collected in US20070010426A1, “Composition for preventing and treating cardiovascular disorders” (Maxluck Biotechnology Corp., priority 2005, published 2007).
# System: obese mouse
substance,measurement,value
chromium picolinate,Effect on blood lipids,reduce the blood lipids
